Experimental data published in PubChem BioAssay (NCI).
“And” between values parts separate entries of the source, which are not always exact repeats. Identical values can stand only once.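 Five compound concentrations were applied to cells in 96-well plates for 48 hours; endpoints were derived by simple linear interpolation of the resulting dose-response curve. GI50: concentration for 50% inhibition of growth. TGI denotes the concentration required for complete inhibition of growth.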

Legend:
Assay in all cases: NCI-60 cell line screen, 48 h
EKVX NSCLC = system: EKVX NSCLC
A498 renal = system: A498 renal
SNB-75 CNS = system: SNB-75 CNS
NCI-H460 lung = system: NCI-H460 lung
RXF 393 renal = system: RXF 393 renal
PC-3 prostate = system: PC-3 prostate
MDA-N = system: MDA-N
NCI-H226 lung = system: NCI-H226 lung
CCRF-CEM leukemia = system: CCRF-CEM leukemia
SNB-78 CNS = system: SNB-78 CNS

Row | SMILES | TGI (EKVX NSCLC) | TGI (A498 renal) | TGI (SNB-75 CNS) | TGI (NCI-H460 lung) [µM] | TGI (RXF 393 renal) | TGI (PC-3 prostate) | TGI (MDA-N) [µM] | TGI (NCI-H226 lung) | TGI (CCRF-CEM leukemia) [µM] | TGI (SNB-78 CNS) [µM] | GI50 (CCRF-CEM leukemia) | GI50 (SNB-75 CNS) | GI50 (NCI-H226 lung) | GI50 (EKVX NSCLC) | GI50 (A498 renal) | GI50 (NCI-H460 lung) | GI50 (RXF 393 renal) | GI50 (PC-3 prostate)
1 | CC(C)COC(c1ccc2c(c1)OCO2)C(C)Br (stereo unspecified) | 76 µM | > 100 µM | 55.7 µM | 51.5 | 23.2 µM | > 100 µM | 53.8 | 70.7 µM |  |  |  |  |  |  |  |  |  | 
2 | COC(=O)C1=C(\O)C[C@@]2(C)CC[C@@H](C(=O)OC)C2C/C=C\1C(=O)OC (stereo partly specified) | > 100 µM | 75.3 µM | > 100 µM | > 100 | > 100 µM |  |  | > 100 µM | > 100 | > 100 |  |  |  |  |  |  |  | 
3 | O=C1c2ccccc2C(=O)c2c1ccc1c2N=C(c2ccc(Br)cc2)CC(c2cccc3ccccc23)N1 (stereo unspecified) | > 100 µM |  | > 100 µM | > 100 | > 100 µM |  |  | > 100 µM | > 100 | > 100 |  |  |  |  |  |  |  | 
4 | CC1(C)CC(N2CCN(C3CC(C)(C)NC(C)(C)C3)CC2)CC(C)(C)N1 | > 100 µM | > 100 µM | > 100 µM | > 100 | > 100 µM |  |  |  | > 100 | > 100 |  |  |  |  |  |  |  | 
5 | COc1cc2c(cc1O)C1CC(CC3CCCCN31)OC(=O)/C=C\c1ccc(O)c-2c1 (stereo unspecified) | > 100 µM | 30.6 µM | 34.2 µM | > 100 |  | 99.5 µM | > 100 | > 100 µM | 90.5 |  |  |  |  |  |  |  |  | 
6 | COc1c(C)c(O)c2c(c1C)OC(c1ccccc1)CC2=O (stereo unspecified) | > 100 µM | > 100 µM | > 100 µM | > 100 |  |  |  | > 100 µM | > 100 | > 100 |  |  |  |  |  |  |  | 
7 | ClCCCCOC1CCCCO1 (stereo unspecified) | > 100 µM | > 100 µM | > 100 µM | > 100 | > 100 µM |  |  | > 100 µM |  | > 100 |  |  |  |  |  |  |  | 
8 | CC12CC(=O)C3C(CCC4=CC(=O)CCC43C)C1CC=C2CC(=O)O (stereo unspecified) | > 100 µM | > 100 µM | > 100 µM | > 100 | > 100 µM | > 100 µM | > 100 | > 100 µM | > 100 |  |  |  |  |  |  |  |  | 
9 | Cn1cnc([N+](=O)[O-])c1Sc1nc2ccc([N+](=O)[O-])cc2[nH]1 | 46.7 µM | 83.4 µM | 81.8 µM | > 100 | 40.1 µM |  |  | > 100 µM | 81.1 | 81 |  |  |  |  |  |  |  | 
10 | O=c1[nH]c(SCc2ccccc2[N+](=O)[O-])nc2nc[nH]c12 | > 100 µM | > 100 µM | > 100 µM | > 100 | > 100 µM | > 100 µM | > 100 | > 100 µM and 98.3 µM | > 100 |  | > 100 µM and 29.6 µM | > 100 µM and 49.5 µM | 84.7 µM and 33.4 µM |  |  |  |  | 
11 | O=C(O)COc1ccc(C(=O)/C(SS/C(C(=O)c2ccc(OCC(=O)O)c(Cl)c2Cl)=C2\C=C(c3ccccc3Cl)SS2)=C2/C=C(c3ccccc3Cl)SS2)c(Cl)c1Cl | > 89.3 µM | 88.7 µM | > 100 µM | 52 |  |  |  | 47.3 µM | 33.5 | 52.5 |  |  |  |  |  |  |  | 
12 | Fc1ccc(C2C3CCOc4c(ccc5ccccc45)C3=NN2c2ccccc2)cc1 (stereo unspecified) | > 100 µM | > 100 µM | > 100 µM | > 100 | > 100 µM | > 100 µM |  | 97 µM | > 74.4 |  | 16.6 µM | > 78.7 µM | 34.2 µM | > 87.4 µM | > 100 µM | 37.1 µM | > 63.6 µM | > 54.9 µM
13 | c1cc2c(c(NC3=NCCN3)c1)CCCC2 | > 100 µM | > 100 µM | > 100 µM | > 100 | > 100 µM | > 100 µM | > 100 | > 100 µM | > 100 |  |  |  |  |  |  |  |  | 
14 | C=C1C(=O)C2(C)OC2(C)C1C(=O)O (stereo unspecified) | > 100 µM |  | > 100 µM | > 100 | > 100 µM | > 100 µM | > 100 | > 100 µM | > 100 |  |  |  |  |  |  |  |  | 
15 | O=C(c1ccco1)c1c(C(F)(F)F)n([O-])c2ccc(F)cc2[n+]1=O | 8.09 µM | 24.3 µM | 7.91 µM | 11.7 | 2.14 µM | 2.47 µM |  | 22.1 µM | 2.97 |  | 0.4 µM | 1.59 µM | 5.38 µM | 2.95 µM | 8.53 µM | 0.926 µM | 0.759 µM | 1.01 µM
16 | CC1(C)OC(=O)C(=Cc2ccc([N+](=O)[O-])s2)C(=O)O1 | 31.8 µM | 54.7 µM |  | > 100 |  | 38.1 µM | 32.5 | 60.5 µM | 88.6 |  |  |  |  |  |  |  |  | 
17 | Nc1nc2ncn(CC(O)COC(=O)c3ccccc3)c2c(=O)[nH]1 (stereo unspecified) | > 100 µM | > 100 µM | > 100 µM | > 100 | > 100 µM |  |  | > 100 µM | > 100 | > 100 |  |  |  |  |  |  |  | 
18 | FC(F)(F)c1ccc(NCc2nc3ccccc3[nH]2)cc1 | > 100 µM | 46.2 µM | > 100 µM | 47.7 | 81.9 µM | 75.8 µM |  | > 100 µM | > 100 |  | 32.5 µM | 23 µM | 26.1 µM | 26.8 µM | 12.4 µM | 19.5 µM | 24.4 µM | 18.8 µM
19 | CS(=O)(=O)N1CCc2c(-c3cnc(N)nc3)nc(N3CCOCC3)nc21 | > 10 µM and 5.74 µM | 0.836 µM and 0.447 µM | 1.3 µM and 0.929 µM | > 100 | 4.04 µM and 3.27 µM | > 5.95 µM and 11 µM |  | 9.45 µM and 12.5 µM | > 100 |  | 0.658 µM and 1.23 µM | 0.146 µM and 0.135 µM | 0.52 µM and 0.343 µM | 0.988 µM and 0.44 µM | 0.203 µM and 0.101 µM | 0.333 µM and 0.286 µM | 0.605 µM and 0.421 µM | 0.279 µM and 0.258 µM
20 | COc1cccc(/C=C\c2ccnc3ccccc23)c1 | > 10 µM | > 10 µM | > 10 µM | > 10 | > 10 µM | > 10 µM | > 10 | > 10 µM | > 10 |  |  |  |  |  |  |  |  | 
21 | NC(=O)c1ncn(Cc2ccccc2)c1CNC(N)=S | > 100 µM |  | > 100 µM | > 100 | > 100 µM |  |  | > 100 µM | > 100 | > 100 |  |  |  |  |  |  |  | 
22 | CC(C)[C@H](C(=O)O[C@@H]1/C=C/C(=O)O[C@@H](C)CCC/C=C/[C@@H]2C[C@H](O)C[C@H]21)N(C)C | > 65.3 µM | 6.62 µM | > 43.2 µM | 82.5 | 15.6 µM | > 57.8 µM |  | 44.2 µM | 75 |  | 6.05 µM | 5.8 µM | 11.2 µM | 8.45 µM | 2.08 µM | 27.7 µM | 3.29 µM | 10.9 µM
